Measured values from paper PMC10771423 (Applied Microbiology and Biotechnology, 2024).

How the values were obtained:
[1] = molecular target: T1, AldOTf (Thermopolyspora flexuosa, UniProt A0A543IX60); assay: HRP-coupled AAP/DCHBS H2O2 assay, […] nm, steady-state kinetics; type: biochemical; details: read-out: KM (mM) / Xylitol^a; 50 mM KPi pH 7.5, 25 °C, O2 as co-substrate
T1 construct: gene FHX40_1862

[2] = molecular target: T1, AldOTf; assay: oxygen consumption (oxygen electrode), steady-state kinetics; type: biochemical; details: read-out: KM (mM) / Glycerol^b; 50 mM KPi pH 7.5, 25 °C, O2 as co-substrate
Source text: oxygen consumption (oxygen electrode), steady-state kinetics on AldOTf

T1 sequence (A0A543IX60 entry or part of it): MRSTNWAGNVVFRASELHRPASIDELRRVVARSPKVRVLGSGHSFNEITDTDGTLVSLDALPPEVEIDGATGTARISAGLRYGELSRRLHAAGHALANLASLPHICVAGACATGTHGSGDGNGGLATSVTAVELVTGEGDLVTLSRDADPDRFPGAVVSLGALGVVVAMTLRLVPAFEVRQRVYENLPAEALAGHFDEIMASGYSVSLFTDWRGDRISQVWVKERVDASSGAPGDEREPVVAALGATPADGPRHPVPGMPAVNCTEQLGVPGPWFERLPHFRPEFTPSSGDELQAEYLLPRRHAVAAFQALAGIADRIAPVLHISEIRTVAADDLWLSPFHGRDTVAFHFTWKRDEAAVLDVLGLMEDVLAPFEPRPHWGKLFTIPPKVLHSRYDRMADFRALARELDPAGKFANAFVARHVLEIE

Structure (SMILES)	Km [1]	Km [2]
OC[C@@H](O)[C@H](O)[C@@H](O)CO [xylitol]	0.04 mM	
OCC(O)CO [glycerol]		41 mM
